In patent US6432381B1, “Methods for targeting drug delivery to the upper and/or lower gastrointestinal tract” (Elan Pharma International Limited, priority 1994, dated 2002):
Blank lines part the entries; values can stand above or below the compound they belong to.

What was measured:
[1] = Particle size determination; format: physicochemical; conditions: wet grinding
Experimental: As used herein, particle size is determined on the basis of weight average particle size as measured by conventional particle size measuring techniques well known to those skilled in the art, such as sedimentation field flow fractionation, photon correlation spectroscopy, or disk centrifugation. […] By “effective particle size” is meant that at least 90% of the particles in the sample measured by the above-noted weight sizing techniques have a particle size less than the stated size.
The particle size was determined during the milling process and again immediately before the suspensions were administered. Particle size was determined on the Coulter Model N4MD Submicron Particle Analyzer (Coulter Corp.; Miami Lakes, Fla.); and using the Microtrac Ultrafine Particle Analyzer (Leeds and Northrup Co.; St. Petersburg, Fla.).

[2] = system: GI tract; assay: X-ray diagnostic imaging of mucoadhesion in the GI tract (ferrets); format: in vivo; conditions: suspension milled in Pluronic F127
Experimental: (§1) The amount and site of the mucoadhesion was determined by x-ray diagnostic imaging. The imaging was performed in anesthetized rats with the exception of G05-R1 samples which were imaged in fasted and anesthetized ferrets. Images were obtained using the Siemens C-Arm Siremobil 3U x-ray unit. The imaging dose was 10 ml/kg administered via gastric intubation to the anesthetized animal. X-rays were taken at 15, 30, 45 and 60 minutes and at 1, 2, 5 and 24 hours post-dose. A 10-15 ml volume of air was introduced to the animal at 30 minutes to produce a double contrast image.
(§2) Images were evaluated by the criteria of: coating, homogeneity, rate of gastric emptying and the total transit time. These are considered to be a measure of the stability of the suspension during transit down the GI tract and the ability of the formulation to adhere to the lower gastrointestinal tract. Suspensions were rated excellent when there was a uniform coating with transradiation of long intestinal segments, sufficient radiodensity to delineate anatomical structure, rapid emptying and transit, and stability and homogeneity during GI transit. A plus sign (+) was assigned when imaging in the lower GI was exceptional, a minus sign (−) as given when it was not. […]

[3] = system: GI tract; assay: X-ray diagnostic imaging of mucoadhesion in the GI tract (rats); format: in vivo
Experimental: as §1, §2

[4] = Table 3

Structure (SMILES): CC[C@@]1(O)C(=O)OCc2c1cc1n(c2=O)Cc2cc3ccccc3nc2-1 [camptothecin]
Particle Size Weight Average ([1]; camptothecin 2%, poloxamer F-68 2%): 107 nm | Particle Size Weight Average ([1]; camptothecin 2%, poloxamer F-108 1%): 111 nm

Structure (SMILES): CCC(=O)OCC(=O)[C@@]1(OC(=O)CC)[C@@H](C)C[C@H]2[C@@H]3CCC4=CC(=O)C=C[C@]4(C)[C@@]3(Cl)[C@@H](O)C[C@@]21C [beclomethasone dipropionate]
Particle Size Weight Average ([1]; beclomethasone dipropionate 5%, poloxamer F-68 2.5%): 221 nm | Particle Size Weight Average ([1]; beclomethasone dipropionate 5%, poloxamer F-127 2.5%): 244 nm

Structure (SMILES): C[C@@H]1[C@H](O)[C@@H](C)/C=C/C=C/C=C/C=C/C=C/C=C/C=C/[C@H](O[C@@H]2O[C@H](C)[C@@H](O)[C@H](N)[C@@H]2O)C[C@@H]2O[C@](O)(C[C@@H](O)C[C@@H](O)[C@H](O)CC[C@@H](O)C[C@@H](O)CC(=O)O[C@H]1C)C[C@H](O)[C@H]2C(=O)O [amphotericin B]
Particle Size Weight Average ([1]; amphotericin B 5%, poloxamer F-68 2.5%): 426 nm | Particle Size Weight Average ([1]; amphotericin B 5%, poloxamer F-127 2.5%): 510 nm

Structure (SMILES): COC1=CC(=O)C[C@@H](C)[C@]12Oc1c(Cl)c(OC)cc(OC)c1C2=O [griseofulvin]
Particle Size Weight Average ([1]; griseofulvin 5%, poloxamer F-68 2.5%): 617 nm | Particle Size Weight Average ([1]; griseofulvin 5%, poloxamer F-127 2.5%): 617 nm

Structure (SMILES): CS(=O)(=O)OCCCCOS(C)(=O)=O [busulfan]
Particle Size Weight Average ([1]; busulfan 2%, poloxamer F-108 0.5%): 387 nm

Structure (SMILES): O=C1NC(=O)C(c2ccccc2)(c2ccccc2)N1 [phenytoin]
Particle Size Weight Average ([1]; phenytoin 5%, poloxamer F-68 2.5%): 385 nm | Particle Size Weight Average ([1]; phenytoin 5%, poloxamer F-108 2.5%): 385 nm | Particle Size Weight Average ([1]; phenytoin 5%, poloxamer F-127 2.5%): 431 nm

Structure (SMILES): CCOC(=O)c1c(I)c(NC(C)=O)c(I)c(NC(C)=O)c1I [WIN 8883, ethyl 3,5-bis(acetylamino)-2,4,6-triodobenzoate]
Upper and lower GI imaging rating [2]: excellent | Upper and lower GI imaging rating ([3]; suspension milled in/stabilized with Pluronic F127, rats): excellent | GI imaging rating ([3]; suspension stabilized with F88, for the upper GI only): excellent | Aqueous Solubility [4]: <5 µg/mL

Structure (SMILES): CS(=O)(=O)OCCC(=O)N1CCN(C(=O)CCOS(C)(=O)=O)CC1 [piposulfan]
Particle Size Weight Average ([1]; piposulfan 2%, poloxamer F-108 0.5%): 339 nm

Now from value to compound:

Particle Size Weight Average ([1]; indomethacin 5%, poloxamer F-68 1%): 228 nm | Particle Size Weight Average ([1]; indomethacin 5%, poloxamer F-68 2.5%): 193 nm
Structure (SMILES): COc1ccc2c(c1)c(CC(=O)O)c(C)n2C(=O)c1ccc(Cl)cc1 [indomethacin]

Particle Size Weight Average ([1]; methotrexate 5%, poloxamer F-68 2.5%): 196 nm | Particle Size Weight Average ([1]; methotrexate 5%, poloxamer F-127 2.5%): 248 nm
Structure (SMILES): CN(Cc1cnc2nc(N)nc(N)c2n1)c1ccc(C(=O)N[C@@H](CCC(=O)O)C(=O)O)cc1 [methotrexate]

Particle Size Weight Average ([1]; ibuprofen 3%, poloxamer F-68 2.0%): 253 nm
Structure (SMILES): CC(C)Cc1ccc(C(C)C(=O)O)cc1 (centres unmarked) [ibuprofen]

Particle Size Weight Average ([1]; naproxen 5%, poloxamer F-68 3.0%): 270 nm
Structure (SMILES): COc1ccc2cc([C@H](C)C(=O)O)ccc2c1 [naproxen]
